Test results as given in patent US20170209579A1, “NON-INVASIVE RADIOFREQUENCY FIELD TREATMENT FOR CANCER THERAPY” (Baylor College of Medicine, priority 2014, published 2017).

Legend:
SNU449 cells = experiment: Clonogenic assay, SNU449 cells; type: cell-based, human; settings: irrespective of dose schedule
Method: Clonogenic assay estimates single-cell reproductive viability by measuring the ability of a single cell to form a colony of 50 cells or more. Clonogenic assay in this study was performed as described previously (Franken et al., 2006). Briefly, cancer cells from an exponentially growing, sub-confluent culture were trypsinized and harvested. Approximately 200 cells were counted and plated in each well of a 6-well plate. Approximately 12 hours later, the cells were adherent and treatment conditions were introduced as described herein. After varying treatments, media was replaced and cells were allowed 14 days to form colonies. Subsequently, the media was aspirated and cells were washed with PBS once. Colonies were then fixed with glutaraldehyde (6.0% v/v) and stained with crystal violet (0.5% w/v) for 30 minutes on a leveled shaker at 50 RPM. The fixation and staining solution was then aspirated and the 6-well plates were air-dried after gentle rinsing with tap water. The number of colonies in each well was counted using a colony counting grid. […]
Clonogenic assays were performed on Hep3B cells and SNU449 cells after one of two combinations of hyperthermia and gemcitabine compared with hyperthermia or gemcitabine alone. […] Next, clonogenic viability was evaluated at a gemcitabine concentration of 5 ng/ml and varied the duration of hyperthermia (30 minutes to 4 hours).

Hep3B orthotopic tumors = experiment: Orthotopic Hep3B xenografts in CB17 SCID mice, tumor mass; type: in vivo, mouse
Source text: For in vivo studies, an implanted mouse model of human HCC was generated in CB17SCID mice (Taconic, Hudson, N.Y.). Female mice between 4 and 5 weeks in age were purchased and acclimatized in M.D. Anderson Animal facilities for up to one week. All animals were handled, housed and studied in accordance with the Institutional Animal Care and Use Committee. Tumors were generated after orthotopic implantation of approximately 1.6 million cells into the liver of each mouse (10 mice per group). Bioluminescence imaging indicated tumor development in the majority of mice three weeks after implantation. Euthanasia was performed by carbon dioxide inhalation followed by cervical spine dislocation.
Cultured luciferase and GFP-expression human HCC cell lines (Hep3B and HepG2) were harvested from an exponentially growing culture and washed with PBS. The cells were re-suspended in 3 ml PBS and final centrifugation was performed at 1000 RPM for 5 minutes. Supernatant was discarded and the cell pellet was used for implantation. The concentration of cells achieved using this protocol was 160,000 cells per micro liter. The cells were kept on ice and animals were injected within 3-4 hours after final centrifugation.
Before surgery, hair was removed from the ventral surface of the abdomen using clippers. Mice were anesthetized using 2.5% isoflurane. The surgical field was sterilized with 70% (v/v) ethanol in water. Mice were placed supine on a heating pad and the surgical site was sterilized using povidone iodine swab sticks. After confirming induction of anesthesia, an approximately 1-cm transverse incision was made in the skin of the upper abdomen slightly left of the midline. Deeper layers of muscle and peritoneum were incised and hemostasis was achieved using silver nitrate chemical cautery sticks. By applying gentle pressure on the lower abdomen and lower chest, the left lobe of the liver was eviscerated. […]
Mice with confirmed tumors on bioluminescence were then randomized in groups of 10. […] Sample size was calculated using Stata SE 12.1 for Mac (College Station, Tex.). […]

## Nc1ccn([C@@H]2O[C@H](CO)[C@@H](O)C2(F)F)c(=O)n1 [gemcitabine, 2′,2′-difluoro 2′-deoxycytidine]
SNU449 cells
  clonogenic survival, gemcitabine combined with hyperthermia: dose-dependent enhancement of gemcitabine toxicity
Hep3B orthotopic tumors; RF then gemcitabine (RF 10 min, 600 W, immediately followed by gemcitabine)
  Mean tumor mass [±SD]: 180 ± 91 mg
Hep3B orthotopic tumors; gemcitabine alone, 70 mg/kg/dose twice a week for three weeks
  Mean tumor mass [±SD]: 661 ± 419 mg
Hep3B orthotopic tumors; gemcitabine then RF (RF 24 hours later)
  Mean tumor mass [±SD]: 291 ± 126 mg
